The record followed here is PubChem BioAssay (NCI).

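Compound exposure: 48 hours, 5 concentrations, 96-well plates. The concentration for full growth arrest is given as TGI.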 A value given as a limit tells only on which side of the number the result lay.

Among the test systems are NCI-H522 lung; CAKI-1 renal; OVCAR-4 ovarian; SR leukemia; RXF 393 renal; HS 578T breast; NCI-H226 lung; SNB-75 CNS; MDA-N; SW-620 colon; PC-3 prostate; OVCAR-8 ovarian; HOP-92 NSCLC; 786-0 renal; UO-31 renal; UACC-257 melanoma; HCT-15 colon; SF-268 CNS; SN12C renal.
What all share (assay): growth of human tumour cells (NCI), 48 h

As to `CC(C)(C)c1cc(C(C)(C)C)c2sc(=S)oc2c1O`, the TGI amounted to 20.5 µM in the experiment on NCI-H522 lung; 18.6 µM in the experiment on CAKI-1 renal; 26.2 µM in the experiment on OVCAR-4 ovarian; 9.76 µM with SR leukemia; 14.5 µM with RXF 393 renal; 20.4 µM in the experiment with HS 578T breast. The TGI was 34.2 µM with NCI-H226 lung; 18.5 µM in the experiment on SNB-75 CNS; 19.8 µM with MDA-N; above 46.7 µM in the experiment with SW-620 colon; 13.8 µM with PC-3 prostate; 20.9 µM in the experiment on OVCAR-8 ovarian. The TGI was determined as 28.9 µM in the experiment with HOP-92 NSCLC; 22.6 µM with 786-0 renal; 16.2 µM with UO-31 renal; 27.4 µM with UACC-257 melanoma; 17.8 µM with HCT-15 colon; 19.8 µM in the experiment on SF-268 CNS. The molecule further gave a TGI with SN12C renal of 19.7 µM.

Take `COc1nc2c(c(=O)n1C)NC(C(O)C(O)CO)C=N2` (configuration not stated): the TGI with NCI-H522 lung, in the experiment on CAKI-1 renal, with OVCAR-4 ovarian, in the experiment with SR leukemia, in the experiment with RXF 393 renal and with HS 578T breast was above 10 µM each time. In addition, the TGI with NCI-H226 lung, in the experiment with SNB-75 CNS, with MDA-N, in the experiment with SW-620 colon, in the experiment on PC-3 prostate and in the experiment with OVCAR-8 ovarian was above 10 µM throughout. The TGI in the experiment on HOP-92 NSCLC, in the experiment with 786-0 renal, with UO-31 renal, with UACC-257 melanoma, in the experiment on HCT-15 colon and in the experiment on SF-268 CNS was above 10 µM throughout. This molecule had a TGI with SN12C renal above 10 µM.

`COc1ccccc1OC(=O)/C=C/c1ccccc1`: the TGI in the experiment with NCI-H522 lung, with CAKI-1 renal, in the experiment with OVCAR-4 ovarian, with SR leukemia, in the experiment with RXF 393 renal and in the experiment on HS 578T breast was above 100 µM in each case. For the same molecule, the TGI in the experiment on NCI-H226 lung, in the experiment with SNB-75 CNS, in the experiment on MDA-N, with SW-620 colon, with PC-3 prostate and with OVCAR-8 ovarian was above 100 µM each time. The TGI in the experiment on HOP-92 NSCLC, in the experiment with 786-0 renal, in the experiment on UO-31 renal, in the experiment on UACC-257 melanoma, in the experiment with HCT-15 colon and in the experiment on SF-268 CNS was above 100 µM each time. In the experiment with SN12C renal, the TGI was above 100 µM.

Consider `Cc1cc(=O)oc2c(CNC(C(=O)O)C(C)O)c(O)ccc12` (configuration not stated), for which the TGI with NCI-H522 lung, in the experiment on CAKI-1 renal, in the experiment with OVCAR-4 ovarian, in the experiment with SR leukemia, with RXF 393 renal and in the experiment with HS 578T breast was above 100 µM in each case. The TGI with NCI-H226 lung, in the experiment on SNB-75 CNS, with MDA-N, with SW-620 colon, in the experiment on PC-3 prostate and in the experiment with OVCAR-8 ovarian was above 100 µM each time. For the same molecule, the TGI in the experiment on HOP-92 NSCLC, with 786-0 renal, in the experiment with UO-31 renal, with UACC-257 melanoma, with HCT-15 colon and in the experiment with SF-268 CNS was above 100 µM throughout. This molecule registered a TGI in the experiment on SN12C renal above 100 µM.

With `COC(=O)c1ccc(NCc2cc(O)ccc2O)cc1O`, the TGI in the experiment on NCI-H522 lung was 1.59 µM; with CAKI-1 renal, 17.7 µM; with OVCAR-4 ovarian, 26.2 µM; with SR leukemia it was above 23.8 µM; in the experiment with RXF 393 renal it was 21.6 µM; in the experiment on HS 578T breast, above 68.1 µM. Also, the TGI in the experiment with NCI-H226 lung was 46.3 µM; with SNB-75 CNS, 22 µM; in the experiment on MDA-N, 23.5 µM; in the experiment on SW-620 colon, 19.9 µM; with PC-3 prostate it was above 32.3 µM; in the experiment on OVCAR-8 ovarian, 19.8 µM. The TGI turned out to be 29 µM in the experiment on HOP-92 NSCLC; 21.5 µM in the experiment with 786-0 renal; 5.61 µM in the experiment on UO-31 renal; 30.9 µM in the experiment on UACC-257 melanoma; 26.5 µM with HCT-15 colon; 21.8 µM with SF-268 CNS. Moreover, in the experiment on SN12C renal, the TGI came out at 29.1 µM.

Take `Cc1cc(=O)[nH]c2c3c(ccc12)OC(C)(C)C=C3`: the TGI with NCI-H522 lung was 67.4 µM; in the experiment with CAKI-1 renal, above 100 µM; in the experiment on OVCAR-4 ovarian it was above 100 µM; in the experiment with SR leukemia, above 100 µM; in the experiment on RXF 393 renal, above 31.4 µM; in the experiment with HS 578T breast it was 32.8 µM. Also, the TGI in the experiment on NCI-H226 lung is above 33.6 µM; in the experiment on SNB-75 CNS, 87.9 µM; in the experiment with MDA-N it was 4.29 µM; with SW-620 colon, above 100 µM; in the experiment on PC-3 prostate it was above 100 µM; in the experiment on OVCAR-8 ovarian it was above 100 µM. Also, the TGI in the experiment on HOP-92 NSCLC is above 100 µM; with 786-0 renal, above 62.7 µM; in the experiment with UO-31 renal, above 100 µM; with UACC-257 melanoma it was above 100 µM; with HCT-15 colon, above 100 µM; in the experiment on SF-268 CNS it was above 100 µM. The same molecule registered a TGI with SN12C renal above 49.6 µM.

`Oc1[nH]c2ccccc2c1N=NC(=S)N1CCCC1`: the TGI was 38.9 µM in the experiment with NCI-H522 lung; 10.8 µM with CAKI-1 renal; 32.2 µM in the experiment with OVCAR-4 ovarian; 3.65 µM with SR leukemia; 3.55 µM in the experiment on RXF 393 renal; above 72.9 µM with HS 578T breast. Also, the TGI turned out to be 1.88 µM with NCI-H226 lung; 14.1 µM in the experiment on SNB-75 CNS; 38.8 µM in the experiment with MDA-N; 52.7 µM in the experiment on SW-620 colon; 57.8 µM with PC-3 prostate; 13.6 µM with OVCAR-8 ovarian. The TGI in the experiment on HOP-92 NSCLC was 39.3 µM; in the experiment on 786-0 renal, 17.3 µM; in the experiment on UO-31 renal, 11.3 µM; in the experiment with UACC-257 melanoma, 29.6 µM; in the experiment with HCT-15 colon it was 4.29 µM; in the experiment with SF-268 CNS, above 58.3 µM. In addition, in the experiment with SN12C renal, the TGI is 31.9 µM.

With `CCOc1cc(NC(C)=O)ccc1C(=O)NN1C(=O)CSC1c1ccc(O)c(OC)c1` (configuration not stated), the TGI with NCI-H522 lung, in the experiment with CAKI-1 renal, in the experiment on OVCAR-4 ovarian, with SR leukemia, in the experiment with RXF 393 renal and with HS 578T breast was above 100 µM throughout. Besides, the TGI in the experiment on NCI-H226 lung, in the experiment on SNB-75 CNS, in the experiment on MDA-N, in the experiment with SW-620 colon, in the experiment on PC-3 prostate and with OVCAR-8 ovarian was above 100 µM each time. Further, the TGI was above 100 µM with HOP-92 NSCLC; above 100 µM in the experiment with 786-0 renal; 29.5 µM in the experiment on UO-31 renal; above 100 µM in the experiment with UACC-257 melanoma; above 100 µM in the experiment on HCT-15 colon; above 100 µM with SF-268 CNS. Further, in the experiment on SN12C renal, the TGI was above 100 µM.
